In US20250154108A1 (priority 2022, published 2025):

Experiment: in vivo
Set-up: species or system SD rats
Conditions: male, SD, rat, plasma, po, 1 mg/kg; read-out: Bioavailability F

Structure (SMILES): C[C@H](NC1=CC(=O)C2(CCCC2)C(=O)N1)c1cc(F)ccc1F [Compound of formula (I)]
- bioavailability: 123%
